Source: US12116387B2, “Antimicrobial peptides” (priority 2021, dated 2024)
Entries after “also recorded” stand apart in the source; their conditions may differ.

Columns and labels:
[1] = system: E. coli ATCC8739 and clinical isolate E. coli 1812446 (KPC-positive); test: Systemic sepsis infection mouse model, E. coli strains; type: in vivo; details: 5 mg Kg^−1 i.p., 3 h post-infection
Procedure: (§1) FIG. 5A-5I pertains to a study of the anti-infective activity of mast-MO against Gram-negative and Gram-positive pathogens in a lethal sepsis infection model. In FIG. 5A mice were infected with bacteria, treated with each peptide or antibiotic and monitored for 8 days. Survival and cell counts after 24 h, respectively, are shown for E. coli ATCC8739 (2×10^4 CFU/mL inoculum) FIG. 5B and FIG. 5C, S. aureus ATCC29213 (2×10^9 CFU/mL inoculum) FIG. 5D and FIG. 5E, E. coli 1812446 (KPC-positive) (2×10^4 CFU inoculum) FIG. 5F and FIG. 5G, and S. aureus (MRSA) ATCC33591 (2×10^9 CFU inoculum) FIG. 5H and FIG. 5I. Mice were treated intraperitoneally (i.p.) with 1, 5 and 10 mg Kg^−1 of mast-L, mast-MO or 10 mg Kg^−1 of the antibiotics gentamicin and imipenem. PBS was used as a control for the untreated group of mice. Treatments were administered 3 h post-infection. Data are expressed as the mean±standard deviation. Statistical analysis was performed using Bonferroni test. […], **p<0.01, ***p<0.001 compared to the untreated control.
(§2) Systemic bacterial infection mouse model. […] Animals were humanely killed 24 h after bacterial administration.

leukocytes = test: Leukocyte migration to the peritoneal cavity of mice infected with E. coli ATCC8739; type: in vivo, C57BL/6 mice; details: mast-MO 10 mg Kg^−1, mast-L 5 mg Kg^−1
Procedure: To test whether the FLPII motif within the mast-MO sequence led to increased immunomodulatory and chemotactic properties with respect to mast-L, ELISA experiments were performed using the peritoneal fluid collected from mice (FIG. 5a). C57BL/6 mice were infected with both Gram-negative and Gram-positive pathogens and administered either mast-L or mast-MO intraperitoneally. For mice infected with E. coli ATCC8739, we monitored the peritoneal cavity to detect and quantify the release and presence of several immune mediators (FIG. 4E). […] This effect was similar to the positive control group of mice treated with […] (TGA) (FIG. 4B). […] We monitored, via ELISAs, the cytokine profiles present within the peritoneal cavity of mice infected with E. coli ATCC8739 and S. aureus ATCC29213 (FIGS. 4E and FIG. 4F, respectively) and treated with a single dose of peptide. […]
Isolation of leukocytes from the peritoneal cavity of mice. Leukocyte migration into the peritoneal cavity of uninfected C57BL/6 mice treated with 10 mg Kg^−1 of peptides was evaluated to assess the chemotactic activity of the peptides, as previously described (11). […] Leukocyte counts present in the in peritoneal cavity of mice infected with E. coli ATCC 8739 were quantified. […] The results are expressed as the number of cells per cavity (48).

[2] = system: E. coli and S. aureus strains; test: Systemic infection experiments, summary over all strains; details: 10 mg Kg^−1
Procedure: To determine the anti-infective activity of mast-MO in a pre-clinical mouse model, the ability of the peptide to kill pathogenic and drug-resistant E. coli and S. aureus strains was tested in a systemic sepsis infection mouse model (FIG. 5). The minimal bacterial load resulting in a lethal dose (LD100) 24 h post-intraperitoneal injection was first determined. […] Mice were infected with the LD100 of bacteria and treated 3 h post-infection with either mast-L (1 and 5 mg Kg^−1) or mast-MO (1, 5 and 10 mg Kg^−1), which were also administered intraperitoneally.
Systemic bacterial infection mouse model. […] The experiment was performed by intraperitoneal (i.p.) injection of the tested peptides to groups of 10 C57BL/6 mice. Each mouse was injected with a 0.5 mL solution of freshly prepared of peptides in PBS. The doses of peptide administered per mouse were 0, 10, 30, 50, 70 and 90 mg Kg^−1 of body weight. Animals were directly inspected for adverse effects for 6 h, and mortality was monitored for 7 days thereafter. Differences between groups were analysed using the Fisher exact test (differences were considered to be statistically significant when the P value was <0.05). Briefly, E. coli ATCC8739 and E. coli 1812446 or S. aureus ATCC 29213 and S. aureus (MRSA) ATCC33591 were plated on tryptic soy agar plus 5% sheep blood (blood agar, Himedia, India) from a frozen stock. Following 24 h of incubation of the agar plate, three isolated colonies were transferred to 1 mL of BHI. The broth culture was incubated overnight (12-16 h) at 37° C. with shaking. […] Mice were challenged with either strain of E. coli ATCC8739 and E. coli 1812446 or S. aureus ATC29213 and S. aureus (MRSA) ATCC33591 in a final volume of 200 μL of PBS by intraperitoneal injection (i.p.). The day of challenge was designated as day 1 of the experiment. Three hours after bacterial injection, mice (n=5) were treated, intraperitoneally, with different concentrations of peptides (1, 5 or 10 mg Kg^−1), LL-37, gentamicin and 10 mg Kg^−1 of imipenem or PBS for 8 days. For bacterial load evaluation, 5 mice per group were used. […]

[3] = system: human embryonic kidney (HEK293) cells; test: Cytotoxicity against HEK293 cells; type: cell-based; details: HEK293
From the text: The FLPII motif was chosen for the permutations to preserve the natural antimicrobial activity of mast-L and also conserve the hydrophobic content inserted in the N-terminal extremity for the initial design of mast-MO. Next, we assessed the antimicrobial (FIG. 10) and cytotoxic activities of the mast-MO analog library against HEK293 cells (FIG. 6C). These specific cell line was chosen as it derives from human embryonic kidney cells and potential antimicrobial (i.e., AMPs, antibiotics) toxicity affects the kidneys, which are responsible for clearing such molecules (34). Also measured was whether the peptides aggregated at the highest concentration tested (128 μmoL^−1) (Table 7) since the motif inserted is composed of residues with aliphatic or aromatic side chain groups that may be prone to aggregation when in proximity within the primary peptide sequence, thus altering biological activity. Minor changes to the first five residues inserted in the mast-MO primary sequence led to a pronounced decrease in cytotoxic activity (2.5 to 5-fold) compared to mast-MO (FIG. 6C).

[4] = system: murine fibroblasts (L929); test: Cytotoxicity against L929 fibroblasts (MTT); type: cell-based; details: L929
Procedure: Mammalian cells toxicity assays. L929 mice fibroblasts (Rio de Janeiro Cell Bank) and SPCs were seeded in 96-well microtiter plates in a concentration of 1.0×10^5 cells per well, in DMEM medium, supplemented with different concentrations of tested peptides (1-600 μM). After 48 h incubation, a thiazolyl blue tetrazolium bromide (MTT) protocol was performed. Briefly, 60% of the medium was removed, and 10 μL of MTT (5 mg mL^−1) (Sigma, USA) solution was added to each well and the plate was incubated for 4 h, in 5% CO2, at 37° C. The blue formazan product generated was dissolved by the addition of 100 μL of 100% DMSO (Mallinckrodt, Germany) per well. Plates were then gently swirled for 5 min, at room temperature, to dissolve the precipitate. The absorbance was monitored at 575 nm using a microplate spectrophotometer (Bio-Tek, USA). Cytotoxicity was determined as a percentage of the maximum value after subtracting the background. The results were expressed as the percentage of each sample compared to the negative control (PBS buffer, pH 7.4) and cell culture was incubated in a lysis buffer (10 mM Tris, pH 7.4, 1 mM ethylenediamine tetraacetic acid (EDTA), and 0.1% Triton X-100).

S. aureus MRSA ATCC33591 = test: Systemic sepsis infection mouse model, MRSA; type: in vivo; details: 5 mg Kg^−1 i.p.
Procedure: as §1, §2

With NLKALAALAKKIL [Mast-L] as the sequence, how does the Survival [1] read?
The Survival was 40 to 60%.

And the “Leukocyte recruitment over the time period tested, in words” value (leukocytes)?
Its value is “did not significantly induce leukocyte recruitment”.

And the “Toxicity when injected systemically in the infection model” value [2]?
Its value is “had to be euthanized; also recorded: led to toxicity”.

What about the “Cytotoxic activity, Peptide Concentration” value [3] of the same sequence?
Its value is 50 µmol/L.

And the “Cytotoxic activity, Peptide Concentration” value [4]?
Its value is 10 µmol/L.

What about the Survival (S. aureus MRSA ATCC33591) of the same sequence?
Its Survival is 60%.
